Results from patent publication US5693756A, “Amiloride-sensitive sodium channel and method of identifying substances which stimulate or block salty taste perception” (The Johns Hopkins University, priority 1995, dated 1997).
pKd: −log10 of the molar value.

Key:
αENAC [1] = biological target: T1, αENAC (Rattus norvegicus, UniProt P37089); assay: [3H]phenamil binding to membranes from HEK-293 cells transfected with native αENAC
T1 construct: alpha subunit transfected alone
T1 sequence (P37089 1-698): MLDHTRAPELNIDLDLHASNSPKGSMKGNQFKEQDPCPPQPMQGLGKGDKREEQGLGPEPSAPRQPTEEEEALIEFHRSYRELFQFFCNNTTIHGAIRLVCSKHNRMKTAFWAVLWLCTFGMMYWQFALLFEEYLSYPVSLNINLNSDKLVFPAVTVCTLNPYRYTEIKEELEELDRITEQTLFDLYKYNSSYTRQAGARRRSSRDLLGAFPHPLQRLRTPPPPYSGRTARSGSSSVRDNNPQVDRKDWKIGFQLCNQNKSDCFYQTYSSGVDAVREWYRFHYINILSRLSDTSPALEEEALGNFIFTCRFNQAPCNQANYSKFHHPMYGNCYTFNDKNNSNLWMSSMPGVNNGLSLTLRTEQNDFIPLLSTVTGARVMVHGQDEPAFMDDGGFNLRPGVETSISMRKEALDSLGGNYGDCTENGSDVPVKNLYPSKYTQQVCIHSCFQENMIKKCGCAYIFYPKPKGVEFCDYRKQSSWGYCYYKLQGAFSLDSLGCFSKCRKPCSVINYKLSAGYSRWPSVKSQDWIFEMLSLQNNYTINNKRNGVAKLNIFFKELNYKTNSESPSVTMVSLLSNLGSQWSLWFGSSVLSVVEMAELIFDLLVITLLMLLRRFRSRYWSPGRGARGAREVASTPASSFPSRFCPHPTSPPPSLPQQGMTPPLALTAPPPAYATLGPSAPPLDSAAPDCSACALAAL
Excerpt: (§1) Amiloride sensitive sodium channels have been extensively characterized in intact tissues by the binding of radioactive ligands. […] To limit variations in expression of individual clones, a pool of stably expressed cells (about 30 clones) that were mixed and propagated 3-4 times were used for the binding assay.
(§2) The full length cDNA of αENAC obtained by screening a rat taste cDNA library as described above (also described by Li et al., 1994, Proc. Natl. Acad. Sci. USA, 91:1814-1818, the disclosure of which is incorporated herein by reference) was cut with Not I and Xho I and inserted into an expression vector pcDNA-III (Invitrogen). The PCR product of the alternatively spliced form αENACa was cut with Bcl I to replace the corresponding region of native αENAC in pcDNA III. Thus the native form (αENAC) and an alternatively spliced form (αENACa) of the alpha subunit of ENAC in the expression vector was constructed for stable expression in HEK-293 cells. DNA (10 μg) was then transfected into HEK-293 cells by the calcium phosphate technique. Stable expression clones of cells were selected by exposure for 4-6 weeks to a medium containing 500 μg/ml G418.
(§3) Transfected HEK-293 cells were harvested in cold (4° C.) binding buffer containing 1 mM EDTA, 15 mM Tris-HCl (pH 7.7), 1 μM pepstain A, 0.1 μM aprotinin, 0.1 mM phenylmethylsulfonyl fluoride and 10 μM leupeptin. Cells were then homogenized, centrifuged and the pellet resuspended in the binding buffer at 1-2 mg/ml concentration. The reaction mixture (0.2 ml) containing [^3 H]phenamil ([…]) and 100 μg protein was incubated at 4° C. for 90 minutes and the reaction terminated by rapid filtration through Whatman GF/B glass fiber filters pretreated with 0.3% polyethyleneimine. Amiloride (Sigma) suspended in 50% dimethylformamide was used as a competitor in the binding assay. Proteins was assayed by a kit (Pierce) with bovine serum albumin as a standard.
(§4) [^3 H]phenamil binding in HEK-293 cells transfected with native αENAC or alternatively spliced αENACa are compared in FIGS. 9A and 9B. […]

αENACa [2] = biological target: T2, αENACa (Rattus norvegicus, UniProt P37089); assay: [3H]phenamil binding to membranes from HEK-293 cells transfected with αENACa
T2 construct: expressed in transfected cells
T2 sequence (P37089 with tags, fused parts or gaps limits assumed): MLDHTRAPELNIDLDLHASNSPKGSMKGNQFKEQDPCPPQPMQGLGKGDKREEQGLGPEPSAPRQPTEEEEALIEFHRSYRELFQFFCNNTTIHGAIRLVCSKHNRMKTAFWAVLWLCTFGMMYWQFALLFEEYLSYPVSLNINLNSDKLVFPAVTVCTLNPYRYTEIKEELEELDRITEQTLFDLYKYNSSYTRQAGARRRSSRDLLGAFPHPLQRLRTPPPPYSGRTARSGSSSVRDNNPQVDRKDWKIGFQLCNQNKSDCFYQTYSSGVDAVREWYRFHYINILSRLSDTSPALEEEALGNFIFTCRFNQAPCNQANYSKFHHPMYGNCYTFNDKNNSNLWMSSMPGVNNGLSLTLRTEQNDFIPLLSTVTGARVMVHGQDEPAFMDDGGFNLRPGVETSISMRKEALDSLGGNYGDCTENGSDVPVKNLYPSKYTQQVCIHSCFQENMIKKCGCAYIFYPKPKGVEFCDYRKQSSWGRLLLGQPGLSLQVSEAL
Excerpt: as §1, §2, §3, §4

αENAC [3] = biological target: T1, αENAC; assay: Inhibition by amiloride of [3H]phenamil binding to membranes from HEK-293 cells transfected with native αENAC; conditions: 50 nM [3H]phenamil, 100 μg membrane protein, increasing concentrations of amiloride
Protocol: as §3
(§5) Membrane protein (100 μg) was incubated with 50 nM [^3 H]phenamil in the absence or presence of increasing concentrations of amiloride. Three independent experiments were performed in duplicate. Results are presented of a typical experiment with values varying less than 20%.

αENACa [4] = biological target: T2, αENACa; assay: Inhibition by amiloride of [3H]phenamil binding to membranes from HEK-293 cells transfected with αENACa; conditions: 50 nM [3H]phenamil
Protocol: as §3, §5

SMILES	levels of [3H]phenamil binding, versus cells transfected only with the expression vector (αENAC [1]; HEK-293 cells transfected with native αENAC, 50 nM [3H]phenamil, 1 mM amiloride)	Bmax (αENAC [1]; saturation analysis, membranes of HEK-293 cells transfected with αENAC)	pKd (αENAC [1]; saturation analysis, membranes of HEK-293 cells transfected with αENAC, 4° C., 90 minutes)	specific [3H]phenamil binding, versus cells not transfected with the channel (αENACa [2]; HEK-293 cells transfected with αENACa, 50 nM [3H]phenamil, 1 mM amiloride)	Bmax (αENACa [2]; saturation analysis, membranes of HEK-293 cells transfected with αENACa)	pKd (αENACa [2]; saturation analysis, membranes of HEK-293 cells transfected with αENACa, 4° C., 90 minutes, read-out: apparent Kd)	inhibition of [3H]phenamil binding (αENAC [3])	inhibition of [3H]phenamil binding (αENACa [4]; 100 μg membrane protein, increasing concentrations of amiloride, αENACa)	potency in competing for [3H]phenamil binding, αENACa transfected cells relative to native channel (αENACa [4]; αENACa versus native αENAC)
NC(=Nc1ccccc1)NC(=O)c1nc(Cl)c(N)nc1N [[^3 H]phenamil, phenamil]	not significantly greater	18 pmol/mg protein	6.57	doubling	28 pmol/mg protein	6.59			
N=C(N)NC(=O)c1nc(Cl)c(N)nc1N [amiloride, N-amidino-3,5-diamino-6-chloropyrazine carboxamide]							inhibited	inhibited	about 10 times
